The structures appear in SMILES notation. Like-named read-outs stand apart in the source and are kept apart here.

The target in test [1] is purified human Factor XIa (Homo sapiens (Human), UniProt P03951). Briefly: Factor XIa Assay. The format is biochemical. How it is done:
The effectiveness of a compound of the present invention as an inhibitor of Coagulation Factor XIa can be determined using a relevant purified serine protease, and an appropriate synthetic substrate. The rate of hydrolysis of the chromogenic or fluorogenic substrate by the relevant serine protease was measured both in the absence and presence of compounds of the present invention. Assays were conducted at room temperature or at 37° C. […] A decrease in the rate of fluorescence change in the presence of inhibitor is indicative of enzyme inhibition. Such methods are known to one skilled in the art. […]
Factor XIa determinations were made in 50 mM HEPES buffer at pH 7.4 containing 150 mM NaCl, 5 mM CaCl2, and 0.1% PEG 8000 (polyethylene glycol; JT Baker or Fisher Scientific). Determinations were made using purified human Factor XIa at a final concentration of 40 pM (Sekisui Diagnostics) and the synthetic substrate, Z-Gly-Pro-Arg-AFC, TFA salt (Sigma #C0980) at a concentration of 100 μM.
Times required to achieve equilibration between enzyme and inhibitor were determined in control experiments. Initial velocities of product formation in the absence (Vo) or presence of inhibitor (Vi) were measured. Assuming competitive inhibition, and that unity is negligible compared Km/[S], [I]/e, and [I]/e (where [S], [I], and e respectively represent the total concentrations, of substrate, inhibitor and enzyme), the equilibrium constant (Ki) for dissociation of the inhibitor from the enzyme can be obtained from the dependence of Vo/Vi on [I] shown in the following equation.

For test [2], the target named is purified Human plasma kallikrein (Homo sapiens (Human), UniProt P03952). Briefly: Kallikrein Assay. The format is biochemical. How it is done: The effectiveness of a compound of the present invention as an inhibitor of Kallikrein can be determined using a relevant purified serine protease, and an appropriate synthetic substrate. The rate of hydrolysis of the chromogenic or fluorogenic substrate by the relevant serine protease was measured both in the absence and presence of compounds of the present invention. Assays were conducted at room temperature or at 37° C. […] A decrease in the rate of fluorescence change in the presence of inhibitor is indicative of enzyme inhibition. Such methods are known to one skilled in the art. The results of this assay are expressed as the inhibitory constant, Ki.
Chain of purified Human plasma kallikrein (P03952 391-638): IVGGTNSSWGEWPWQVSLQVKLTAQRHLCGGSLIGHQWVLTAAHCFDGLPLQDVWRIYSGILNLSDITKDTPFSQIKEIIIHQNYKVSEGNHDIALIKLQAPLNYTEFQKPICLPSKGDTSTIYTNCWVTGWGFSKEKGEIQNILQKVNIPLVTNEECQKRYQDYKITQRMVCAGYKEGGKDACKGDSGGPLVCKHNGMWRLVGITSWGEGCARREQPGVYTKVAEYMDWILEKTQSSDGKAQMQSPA
Chain of purified Human plasma kallikrein (P03952 20-390 partner): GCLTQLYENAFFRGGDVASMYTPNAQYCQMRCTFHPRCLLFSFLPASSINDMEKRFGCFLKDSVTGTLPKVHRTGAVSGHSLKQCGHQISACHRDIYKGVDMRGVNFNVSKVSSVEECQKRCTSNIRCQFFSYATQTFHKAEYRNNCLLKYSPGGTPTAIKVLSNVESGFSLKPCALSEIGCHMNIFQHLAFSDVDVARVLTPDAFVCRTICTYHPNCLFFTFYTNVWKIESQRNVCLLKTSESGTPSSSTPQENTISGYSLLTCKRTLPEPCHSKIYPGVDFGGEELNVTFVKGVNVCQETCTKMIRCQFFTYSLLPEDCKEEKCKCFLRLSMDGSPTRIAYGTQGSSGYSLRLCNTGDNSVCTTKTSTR
Kallikrein determinations were made in 50 mM HEPES buffer at pH 7.4 containing 150 mM NaCl, 5 mM CaCl2, and 0.1% PEG 8000 (polyethylene glycol; Fisher Scientific). Determinations were made using purified Human plasma kallikrein at a final concentration of 0.5 nM (Enzyme Research Laboratories) and the synthetic substrate, Acetyl-K-P-R-AFC (Sigma # C6608) at a concentration of […].
Times required to achieve equilibration between enzyme and inhibitor were determined in control experiments. The reactions were performed under linear progress curve conditions and fluorescence increase measured at 405 Ex/510 Em nm. […] IC50 was determined by inflection point from a four parameter logistic curve fit. Ki was calculated using the Cheng Prusoff equation, Ki=IC50/(1+([S]/Km)).

Setting [3] is: substrate Z-Gly-Pro-Arg-AFC 100 μM, 40 pM enzyme, pH 7.4, read-out: FXIa IC50.
[4] abbreviates: Plasma kallikrein, substrate Acetyl-K-P-R-AFC, 0.5 nM enzyme, pH 7.4, read-out: PK IC50.

Chain of purified human Factor XIa (P03951 388-625): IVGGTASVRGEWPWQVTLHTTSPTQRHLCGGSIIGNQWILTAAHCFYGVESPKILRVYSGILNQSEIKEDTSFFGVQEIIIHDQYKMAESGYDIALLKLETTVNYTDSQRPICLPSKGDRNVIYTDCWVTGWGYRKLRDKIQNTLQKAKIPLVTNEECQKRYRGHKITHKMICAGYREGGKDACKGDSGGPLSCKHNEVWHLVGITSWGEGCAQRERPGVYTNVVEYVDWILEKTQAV
Chain of purified human Factor XIa (P03951 19-387 partner): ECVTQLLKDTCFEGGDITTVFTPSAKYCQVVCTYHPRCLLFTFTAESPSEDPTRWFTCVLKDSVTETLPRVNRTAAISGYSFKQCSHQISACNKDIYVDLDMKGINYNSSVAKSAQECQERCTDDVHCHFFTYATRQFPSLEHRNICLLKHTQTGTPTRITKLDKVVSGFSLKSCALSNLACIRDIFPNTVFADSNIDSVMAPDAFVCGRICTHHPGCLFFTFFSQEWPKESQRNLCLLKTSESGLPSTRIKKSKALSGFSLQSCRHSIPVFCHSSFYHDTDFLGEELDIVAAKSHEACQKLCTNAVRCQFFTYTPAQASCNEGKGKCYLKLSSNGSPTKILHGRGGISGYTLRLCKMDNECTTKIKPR

As usually defined, the IC50 is the concentration needed to halve the response being measured. On to `O=C1CC(C(=O)N2CCC(c3cccc([C@H](Cc4ccccc4)c4ccc(-c5cc(Cl)ccc5-n5cnnn5)c[n+]4[O-])c3)CC2)C1` [Example 32, 3-[(4-{3-[(1S)-1-{5-[5-chloro-2-(1H-tetrazol-1-yl)phenyl]-1-oxidopyridin-2-yl}-2-phenylethyl]phenyl}piperidin-1-yl)carbonyl] cyclobutanone], for which the IC50 in test [1] (setting [3]) stood at 0.0111 µM; in test [2] (setting [4]) it was 0.324 µM.
Consider `COCCC(=O)N1CCC(c2cccc([C@H](Cc3ccccc3)c3ccc(-c4cc(Cl)ccc4-n4cnnn4)c[n+]3[O-])c2)CC1` [Example 33, 5-[5-chloro-2-(1H-tetrazol-1-yl)phenyl]-2-[(1S)-1-{3-[1-(3-methoxy-propanoyl)piperidin-4-yl]phenyl}-2-phenylethyl] pyridine 1-oxide], for which the IC50 in test [1] (setting [3]) is 0.0112 µM; in test [2] (setting [4]), 0.376 µM.
The like results for `O=C(C1CC1)N1CCC(c2cccc([C@H](Cc3ccccc3)c3ccc(-c4cc(Cl)ccc4-n4cnnn4)c[n+]3[O-])c2)CC1` [Example 34, 5-[5-chloro-2-(1H-tetrazol-1-yl)phenyl]-2-[(1S)-1-{3-[1-(cyclopropyl-carbonyl)piperidin-4-yl]phenyl}-2-phenylethyl] pyridine 1-oxide] were, in that order, 0.0106 µM and 0.371 µM.
Turning to `O=C(C1CCO1)N1CCC(c2cccc([C@H](Cc3ccccc3)c3ccc(-c4cc(Cl)ccc4-n4cnnn4)c[n+]3[O-])c2)CC1` (stereo partly drawn) [Example 35, 5-[5-chloro-2-(1H-tetrazol-1-yl)phenyl]-2-[(1S)-1-{3-[1-(oxetan-2-ylcarbonyl)piperidin-4-yl]phenyl}-2-phenylethyl] pyridine 1-oxide], the IC50 in test [1] (setting [3]) worked out at 0.0122 µM; in test [2] (setting [4]), 0.403 µM.
In the case of `COCC(=O)N1CCC(c2cccc([C@H](Cc3ccccc3)c3ccc(-c4cc(Cl)ccc4-n4cnnn4)c[n+]3[O-])c2)CC1` [Example 36, 5-[5-chloro-2-(1H-tetrazol-1-yl)phenyl]-2-[(1S)-1-{3-[1-(methoxyacetyl)piperidin-4-yl]phenyl}-2-phenylethyl] pyridine 1-oxide], the figures for the half-maximal inhibitory concentration (IC50) in test [1] (setting [3]) and in test [2] (setting [4]) were 0.00817 µM and 0.382 µM, respectively.
`O=C(CF)N1CCC(c2cccc([C@H](Cc3ccccc3)c3ccc(-c4cc(Cl)ccc4-n4cnnn4)c[n+]3[O-])c2)CC1` [Example 38, 5-[5-chloro-2-(1H-tetrazol-1-yl)phenyl]-2-[(1S)-1-{3-[1-(fluoroacetyl)piperidin-4-yl]phenyl}-2-phenylethyl] pyridine 1-oxide]: the IC50 in test [1] amounted to 0.0109 µM; in test [2], 0.322 µM.
In the case of `NC(=O)C(=O)N1CCC(c2cccc([C@H](Cc3ccccc3)c3ccc(-c4cc(Cl)ccc4-n4cnnn4)c[n+]3[O-])c2)CC1` [Example 39, 2-(4-{3-[(1S)-1-{5-[5-chloro-2-(1H-tetrazol-1-yl)phenyl]-1-oxidopyridin-2-yl}-2-phenylethyl]phenyl}piperidin-1-yl)-2-oxoacetamide], the IC50 in test [1] (setting [3]) is 0.00995 µM; in test [2] (setting [4]) it was 0.113 µM.
For the compound `O=C(C1COC1)N1CCC(c2cccc([C@H](Cc3ccccc3)c3ccc(-c4cc(Cl)ccc4-n4cnnn4)c[n+]3[O-])c2)CC1` [Example 40], the IC50 in test [1] (setting [3]) came out at 0.0118 µM; in test [2] (setting [4]), 0.413 µM.
Turning to `COCCOC(=O)N1CCC(c2cccc([C@H](Cc3ccccc3)c3ccc(-c4cc(Cl)ccc4-n4cnnn4)c[n+]3[O-])c2)CC1` [Example 45, 2-methoxyethyl 4-{3-[(1S)-1-{5-[5-chloro-2-(1H-tetrazol-1-yl)phenyl]-1-1-oxidopyridin-2-yl}-2-phenylethyl]phenyl} piperidine-1-carboxylate], the IC50 in test [1] (setting [3]) is 0.0439 µM; in test [2] (setting [4]), 0.659 µM.
Take `O=C(NC1CCCC1)N1CCC(c2cccc([C@H](Cc3ccccc3)c3ccc(-c4cc(Cl)ccc4-n4cnnn4)c[n+]3[O-])c2)CC1` [Example 47, 4-{3-[(1S)-1-{5-[5-chloro-2-(1H-tetrazol-1-yl)phenyl]-1-oxidopyridin-2-yl}-2-phenylethyl]phenyl}-N-cyclopentyl piperidine-1-carboxamide]: the concentration for half-maximal inhibition (IC50) worked out at 0.0201 µM in test [1] (setting [3]) and 0.879 µM in test [2] (setting [4]).
For `COCCNC(=O)N1CCC(c2cccc([C@H](Cc3ccccc3)c3ccc(-c4cc(Cl)ccc4-n4cnnn4)c[n+]3[O-])c2)CC1` [Example 48, 4-{3-[(1s)-1-{5-[5-chloro-2-(1H-tetrazol-1-yl)phenyl]-1-oxidopyridin-2-yl}-2-phenylethyl]phenyl}-N-(2-methoxyethyl) piperidine-1-carboxamide], the IC50 came out at 0.00871 µM in test [1] (setting [3]) and 0.325 µM in test [2] (setting [4]).
In the case of `O=C(NC1CCOC1)N1CCC(c2cccc([C@H](Cc3ccccc3)c3ccc(-c4cc(Cl)ccc4-n4cnnn4)c[n+]3[O-])c2)CC1` (stereo partly drawn) [Example 49, 4-{3-[(1S)-1-{5-[5-chloro-2-(1H-tetrazol-1-yl)phenyl]-1-oxidopyridin-2-yl}-2-phenylethyl]phenyl}-N-(tetrahydrofuran-3-yl)piperidine-1-carboxamide], the IC50 in test [1] (setting [3]) came out at 0.00689 µM; in test [2] (setting [4]) it was 0.414 µM.
Turning to `O=C(NC1CCC1)N1CCC(c2cccc([C@H](Cc3ccccc3)c3ccc(-c4cc(Cl)ccc4-n4cnnn4)c[n+]3[O-])c2)CC1` [Example 51, 4-{3-[(1S)-1-{5-[5-chloro-2-(1H-tetrazol-1-yl)phenyl]-1-oxidopyridin-2-yl}-2-phenylethyl]phenyl}-N-cyclobutyl piperidine-1-carboxamide], the IC50 in test [1] (setting [3]) worked out at 0.0132 µM; in test [2] (setting [4]), 0.614 µM.
For the compound `O=C(NCC1CCOC1)N1CCC(c2cccc([C@H](Cc3ccccc3)c3ccc(-c4cc(Cl)ccc4-n4cnnn4)c[n+]3[O-])c2)CC1` (stereo partly drawn) [Example 52, 4-{3-[(1S)-1-{5-[5-chloro-2-(1H-tetrazol-1-yl)phenyl]-1-oxidopyridin-2-yl}-2-phenylethyl]phenyl}-N-(tetrahydrofuran-3-ylmethyl) piperidine-1-carboxamide], the IC50 in test [1] (setting [3]) was 0.00648 µM; in test [2] (setting [4]) it was 0.384 µM.

Values taken from patent publication US9975874B2, “Factor XIa inhibitors” (Merck Sharp & Dohme Corp., priority 2014, dated 2018).
